Results on one substance are retold here after US20210038668A1, “TRADITIONAL CHINESE MEDICINE COMPOSITION FOR PREVENTING AND/OR TREATING ISCHEMIC REPERFUSION INJURY” (TASLY PHARMACEUTICAL GROUP CO., LTD., priority 2018, published 2021).

The subject of one test is Bax. The test can be described thus: Western blotting of Bax, endothelial cells after hypoxia/reoxygenation. In kind it is cell-based. To be noted: rat brain endothelial cells, hypoxia 4.5 h/reoxygenation 3 h; tPA 20 mcg/ml alone (model group); T541 400 mcg/ml + tPA 20 mcg/ml. An excerpt:
Establishment of rat brain endothelial cell H/R model: rat brain endothelial cells were purchased from ATCC, and then subcultured to 5-6 generations in normal conditions for further experiment. […]
A general note: Immunoblotting shows a protein as a band on a membrane.

In test [1] the test system is thrombus of arteria carotis communis. Description: Observation of carotid thrombus size, FeCl3 model. The format is in vivo, C57BL/6 mice. As for the experimental part:
Mice were anesthetized via intraperitoneal injection by pentobarbital sodium (2%, 45 mg/kg), and neck kin was sterilized. A median incision was cut on the neck, exposed and isolated to obtain arteria carotis communis; a waterproof cushion was used to isolate arteria carotis communis with the length of about 2.5-3 mm from surrounding tissues. The isolated arteria carotis communis was wrapped by a filter paper soaked by 10% FeCl3 for about 1 mm (width), and the filter paper was removed 3 minutes later, the outside of blood vessel was washed by 0.9% normal saline. The waterproof cushion was removed. The neck incision was sutured. The start of Fe3+ stimulation was defined as the beginning of ischemia, and those mice meeting the following conditions were selected into the group: the blood vessel was blocked at the maximum diameter of the neck thrombus 10 minutes after ischemia; the blood flow of the carotid artery distal end was less than 20% of the base value 15 minutes after ischemia; and the thrombus was stable 4.5 hours after ischemia (before reperfusion); the carotid artery vessel at 60% and more of the diameter was blocked by the maximum diameter of the thrombus.
Mice were treated by medicaments or normal saline according to random grouping results 4.5 hours after ischemia. Mice femoral vein was intubated, and left femoral vein was injected tPA (tissue plasminogen activator) or normal saline; right femoral vein was injected the traditional Chinese medicinal composition of the present invention or normal saline; 10% of the total dose was injected via an injection pump, and the rest 90% were continuously injected intravenously for 1 hour with the rate of 0.1 ml/h. Three proportion groups were selected to the traditional Chinese medicinal composition of the present invention respectively below:
Carotid thrombus of mice was dynamically observed by an upright microscope. Anesthetized mice were placed on a board in supine position, a median incision was cut on the neck; arteria carotis communis was exposed and separated; femoral vein was given Acridine red fluorescence labeling of blood platelet to observe the change of carotid thrombus of mice before ischemia (namely, a base value), 10 minutes after ischemia, 4.5 hours after ischemia (namely, before reperfusion), 1 hour after reperfusion, 2 hours after reperfusion and 24 hours after reperfusion. There was no thrombus before ischemia (namely, a base value); the blood vessel was blocked by thrombus at a maximum diameter 10 minutes after ischemia; blood flow at the distal end of carotid artery decreased to 20% of the base value below 15 minutes after ischemia; the thrombus was stable 4.5 hours after ischemia (namely, before reperfusion). The success criterion is that the size of thrombus blocks 60% of the vascular area of carotid artery and above; the success rate of entry is up to 90.9%. Excepting for the sham-operated group and each basal group, the rest groups were randomly allocated after building models successfully.

Where [2] appears, read: before administration, groups: tPA 10 mg/kg alone, T541 20 mg/kg, T141 12 mg/kg, T582 15 mg/kg each + tPA 10 mg/kg.
Where [3] appears, read: iv, tPA 10 mg/kg alone, T541 20 mg/kg, T141 12 mg/kg, T582 15 mg/kg each + tPA 10 mg/kg.

“tPA: tissue-type plasminogen activator (tPA) for thrombolysis”: in the test with Bax, the Bax came out at 2.44 ± 0.51 and the Bax/Bcl-2 came to 4.57 ± 0.75. For the same substance, in test [1] (setting [2]), the “Size of thrombus, 10 minutes after FeCl3 simulation” value is 25.13 ± 1.34 and the “Size of thrombus, Before FeCl3 simulation” value was 0 ± 0. Also, the “thrombolysis effect (in words)” value in test [1] (given alone: T541 20 mg/kg, tPA 10 mg/kg (24 hours later)) is given as “size of thrombus decreases obviously”. In addition, in test [1] (setting [3]), the “Size of thrombus, 5.5 hours after FeCl3 simulation (1 hour after administration)” value is given as 22.14 ± 1.36; the “Size of thrombus, 6.5 hours after FeCl3 simulation (2 hours after administration)” value is given as 16.64 ± 4.10; the “Size of thrombus, 28.5 hours after FeCl3 simulation (24 hours after administration)” value is on record as 11.15 ± 2.61. Also, the “Size of thrombus, 4.5 hours after FeCl3 simulation” value in test [1] (start of administration, groups: tPA 10 mg/kg alone, T541 20 mg/kg, T141 12 mg/kg, T582 15 mg/kg each + tPA 10 mg/kg) is 23.47 ± 1.78.
